# Measured values taken from patent US11694765B2, “Interrogatory cell-based assays for identifying drug-induced toxicity markers” (Berg LLC, priority 2012, dated 2023).
# Key:
# [1] = test system: human mitochondrial energy metabolism genes in diabetic cardiomyocytes; test: Transcriptional profiling of mitochondrial energy metabolism genes in diabetic cardiomyocytes; type: cell-based; details: diabetic drug plus rescue molecule (T+R) vs untreated (UT)
# Protocol: (§1) Human cardiomyocytes were subject to conditions simulating an diabetic environment experienced by the disease-relevant cells in vivo. Specifically, the cells were exposed to hyperglycemic conditions and hyperlipidemia conditions. The hyperglycemic condition was induced by culturing cells in media containing 22 mM glucose. The hyperlipidemia condition was induced by culturing the cells in media containing 1 mM L-carnitine, 0.7 mM Oleic acid and 0.7 mM Linoleic acid. […]
# Cell samples from each condition with each perturbation treatment were collected at various times following treatment, including after 6 hours of treatment. For certain conditions, media samples were also collected and analyzed.
# iProfiling of changes in total cellular protein expression by quantitative proteomics was performed for cell and media samples collected for each condition and with each “environmental perturbation”, i.e, diabetic drug treatment, Coenzyme Q10 treatment or both, using the techniques described above in the detailed description. […] Following data collection (Ct), the final fold change over control was determined using the δCt method as outlined in manufacturer's protocol. […] Functional assays such as Oxygen consumption rate OCR were measured by employing the Seahorse analyzer essentially as recommended by the manufacturer. […]
# [2] = test system: GPAT1 and TAZ in hyperglycemia conditioned cardiomyocytes; test: Western blotting of GPAT1 and TAZ protein expression in cardiomyocytes; type: cell-based, human; details: diabetic drug plus rescue molecule (T+R)
# Protocol: Human cardiomyocytes were subject to conditions simulating an diabetic environment experienced by the disease-relevant cells in vivo. Specifically, the cells were exposed to hyperglycemic conditions and hyperlipidemia conditions. The hyperglycemic condition was induced by culturing cells in media containing 22 mM glucose. The hyperlipidemia condition was induced by culturing the cells in media containing 1 mM L-carnitine, 0.7 mM Oleic acid and 0.7 mM Linoleic acid.
# The cell model comprising the above-mentioned cells, wherein the cells were exposed to each condition described above, was additionally “interrogated” by exposing the cells to an “environmental perturbation” by treating with a diabetic drug (T) which is known to cause cardiotoxicity, a rescue molecule (R) or both the diabetic drug and the rescue molecule (T+R). Specifically, the cells were treated with diabetic drug; or treated with rescue molecule Coenzyme Q10 at 0, 50 μM, or 100 μM; or treated with both of the diabetic drug and the rescue molecule Coenzyme Q10.
# Protein expression levels of GPAT1 and TAZ for each condition and each treatment were tested with western blotting.
# [3] = test system: hyperglycemia conditioned cardiomyocytes; test: Mitochondrial oxygen consumption rate (Seahorse analyzer); type: cell-based, human; details: diabetic drug plus rescue molecule (T1+R or T2+R)
# Protocol: as §1
# iProfiling of changes in total cellular protein expression by quantitative proteomics was performed for cell and media samples collected for each condition and with each “environmental perturbation”, i.e, diabetic drug treatment, Coenzyme Q10 treatment or both, using the techniques described above in the detailed description. […] Following data collection (Ct), the final fold change over control was determined using the δCt method as outlined in manufacturer's protocol. […] Functional assays such as Oxygen consumption rate OCR were measured by employing the Seahorse analyzer essentially as recommended by the manufacturer. OCR was recorded by the electrodes in a 7 μl chamber created with the cartridge pushing against the seahorse culture plate. […]
# melanoma cell = details: in the presence of VEGF; cited from earlier work
# normal fibroblast = details: co-administration with VEGF; cited from earlier work
structure (smiles),measurement,setting,value
COC1=C(OC)C(=O)C(C/C=C(\C)CC/C=C(\C)CC/C=C(\C)CC/C=C(\C)CC/C=C(\C)CC/C=C(\C)CC/C=C(\C)CC/C=C(\C)CC/C=C(\C)CCC=C(C)C)=C(C)C1=O [Coenzyme Q10],transcriptional network and expression of human mitochondrial energy metabolism genes,[1],normalize gene expression and transcription
same,transcriptional network and expression of human mitochondrial energy metabolism genes,[1]; listed as rescue molecule,normalizes gene expression
same,protein expression level of GPAT1,[2],normalized
same,protein expression level of TAZ,[2],normalized
same,mitochondrial oxygen consumption rate (OCR),[3],normalized
same,mitochondrial oxygen consumption rate (OCR),[3]; listed as rescue molecule,normalizes OCR
same,level of Bcl2,melanoma cell,decreased
same,levels of Bcl2,normal fibroblast,no effect
